Laboratory results reported in patent US8871783B2, “Substituted 2-aza-bicyclo[2.2.1]heptane-3-carboxylic acid (cyano-methyl)-amides inhibitors of cathepsin C” (Boehringer Ingelheim International GmBh, priority 2013, dated 2014).
pKi: −log10 of the molar value.

Target: recombinant human DPPI (Homo sapiens (Human), UniProt P53634)
Experiment: Inhibition of Human DPPI (Cathepsin C)
Format: biochemical
Settings: substrate Gly-Arg-AMC 50 μM, MES buffer pH 6.0, fluorescence
Excerpt: Inhibition of Human DPPI (Cathepsin C)
Materials: Microtiterplates (Optiplate-384 F) were purchased from PerkinElmer (Prod. No. 6007270). The substrate Gly-Arg-AMC was from Biotrend (Prod.-No. 808756 Custom peptide). Bovine serum albumin (BSA; Prod. No. A3059) and Dithiothreitol (DTT; Prod. No D0632) were from Sigma. TagZyme buffer was from Riedel-de-Haen (Prod.-No. 04269), NaCl was from Merck (Prod.-No. 1.06404.1000) and morpholinoethane sulfonic acid (MES), was from Serva (Prod.-No. 29834). The DPP1 inhibitor Gly-Phe-DMK was purchased from MP Biomedicals (Prod.-No. 03DK00625). The recombinant human DPPI was purchased from Prozymex. All other materials were of highest grade commercially available.
The following buffers were used: MES buffer: 25 mM MES, 50 mM NaCl, 5 mM DTT, adjusted to pH 6.0, containing 0.1% BSA; TAGZyme Buffer: 20 mM NaH2PO4, 150 mM NaCl adjusted to pH 6.0 with HCl
Assay conditions: The recombinant human DPPI was diluted in TAGZyme buffer to 1 U/ml (38.1 μg/ml, respectively), and then activated by mixing in a 1:2 ratio with a Cysteamine aqueous solution (2 mM) and incubating for 5 min at room temperature.
Five uL test compound (final concentration 0.1 nM to 100 μM) in aqua bidest (containing 4% DMSO, final DMSO concentration 1%) were mixed with 10 μL of DPPI in MES buffer (final concentration 0.0125 ng/μL) and incubated for 10 min. Then, 5 μL of substrate in MES buffer (final concentration 50 μM) were added. The microtiter plates were then incubated at room temperature for 30 min. Then, the reaction was stopped by adding 10 μL of Gly-Phe-DMK in MES-buffer (final concentration 1 μM). The fluorescence in the wells was determined using a Molecular Devices SpectraMax M5 Fluorescence Reader (Ex 360 nm, Em 460 nm) or an Envision Fluorescence Reader (Ex 355 nm, Em 460 nm).
Each assay microtiter plate contained wells with vehicle controls (1% DMSO in bidest+0.075% BSA) as reference for non-inhibited enzyme activity (100% Ctl; high values) and wells with inhibitor (Gly-Phe-DMK, in bidest+1% DMSO+0.075% BSA, final concentration 1 μM) as controls for background fluorescence (0% Ctl; low values).
The analysis of the data was performed by calculating the percentage of fluorescence in the presence of test compound in comparison to the fluorescence of the vehicle control after subtracting the background fluorescence using the following formula: (RFU(sample)−RFU(background))*100/(RFU(control)−RFU(background)) […]

Chain of recombinant human DPPI (P53634 231-394): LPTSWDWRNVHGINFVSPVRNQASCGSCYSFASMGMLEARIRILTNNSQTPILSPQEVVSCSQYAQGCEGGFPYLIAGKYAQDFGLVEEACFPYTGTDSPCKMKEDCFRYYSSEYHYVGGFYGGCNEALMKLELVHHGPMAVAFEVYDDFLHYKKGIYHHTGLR
Chain of recombinant human DPPI (P53634 395-463): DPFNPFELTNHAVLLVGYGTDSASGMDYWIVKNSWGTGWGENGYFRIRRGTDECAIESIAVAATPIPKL
Chain of recombinant human DPPI (P53634 25-134): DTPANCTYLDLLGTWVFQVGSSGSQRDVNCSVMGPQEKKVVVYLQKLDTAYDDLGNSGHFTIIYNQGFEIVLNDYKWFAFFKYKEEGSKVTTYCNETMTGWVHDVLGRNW

Structure (SMILES)	pKi
CS(=O)(=O)c1ccc(-c2ccc(C[C@@H](C#N)NC(=O)[C@H]3N[C@@H]4CC[C@H]3C4)s2)cc1 [Example 2]	7.76
CN1C(=O)C(=O)c2ccc(-c3ccc(C[C@@H](C#N)NC(=O)[C@H]4N[C@@H]5CC[C@H]4C5)s3)cc21 [Example 4]	8.68
CN1C(=O)Cc2ccc(-c3ccc(C[C@@H](C#N)NC(=O)[C@H]4N[C@@H]5CC[C@H]4C5)o3)cc21 [Example 5]	6.75
CN1CCN(S(=O)(=O)c2ccc(-c3ccc(C[C@@H](C#N)NC(=O)[C@H]4N[C@@H]5CC[C@H]4C5)s3)cc2)CC1 [Example 23]	8.54
N#CC(Cc1cc2cc(-c3ccccc3)ccc2s1)NC(=O)[C@H]1N[C@@H]2CC[C@H]1C2 (stereo partly drawn) [Example 11]	7.14
N#C[C@H](Cc1ccc(-c2cnn(CC3CCOCC3)c2)s1)NC(=O)[C@H]1N[C@@H]2CC[C@H]1C2 [Example 18]	7.57
CN1C(=O)Cc2ccc(-c3cc(F)c(CC(C#N)NC(=O)[C@H]4N[C@@H]5CC[C@H]4C5)s3)cc21 (stereo partly drawn) [Example 22]	8.66
N#CC(Cc1cc2cc(Br)ccc2o1)NC(=O)[C@H]1N[C@@H]2CC[C@H]1C2 (stereo partly drawn) [Example 6]	7.19
N#Cc1ccc(-c2ccc(C[C@@H](C#N)NC(=O)[C@H]3N[C@@H]4CC[C@H]3C4)s2)cc1F [Example 1]	7.86
CN1CCC(c2ccc(C[C@@H](C#N)NC(=O)[C@H]3N[C@@H]4CC[C@H]3C4)s2)CC1 [Example 20]	7.42
CN1C(=O)Cc2ccc(-c3ccc(C[C@@H](C#N)NC(=O)[C@H]4N[C@@H]5CC[C@H]4C5)s3)cc21 [Example 3]	8.49
CC1(C)OC(=O)c2ccc(-c3ccc(C[C@@H](C#N)NC(=O)[C@H]4N[C@@H]5CC[C@H]4C5)s3)cc21 [Example 25]	8.40
CN1C(=O)Cc2ccc(-c3ccc4oc(CC(C#N)NC(=O)[C@H]5N[C@@H]6CC[C@H]5C6)cc4c3)cc21 (stereo partly drawn) [Example 8]	6.98
CC(=O)c1ccc(-c2ccc(C[C@@H](C#N)NC(=O)[C@H]3N[C@@H]4CC[C@H]3C4)s2)s1 [Example 14]	7.87
N#C[C@H](Cc1ccc(-c2ccc3c(c2)NC(=O)C3)s1)NC(=O)[C@H]1N[C@@H]2CC[C@H]1C2 [Example 17]	8.38
CN1C(=O)Cc2ccc(-c3csc(CC(C#N)NC(=O)[C@H]4N[C@@H]5CC[C@H]4C5)c3F)cc21 (stereo partly drawn) [Example 13]	7.21
CC1(C)OC(=O)c2cc(-c3ccc(C[C@@H](C#N)NC(=O)[C@H]4N[C@@H]5CC[C@H]4C5)s3)ccc21 [Example 24]	7.66
CCn1cc(-c2ccc(C[C@@H](C#N)NC(=O)[C@H]3N[C@@H]4CC[C@H]3C4)s2)cn1 [Example 16]	7.77
CN1C(=O)Cc2ccc(-c3csc(CC(C#N)NC(=O)[C@H]4N[C@@H]5CC[C@H]4C5)c3)cc21 (stereo partly drawn) [Example 15]	7.38
N#CC(Cc1cc2cc(Br)ccc2s1)NC(=O)[C@H]1N[C@@H]2CC[C@H]1C2 (stereo partly drawn) [Example 10]	7.45
CS(=O)(=O)c1cccc(-c2ccc(C[C@@H](C#N)NC(=O)[C@H]3N[C@@H]4CC[C@H]3C4)s2)c1 [Example 26]	7.78
N#Cc1ccc(-c2ccc3oc(CC(C#N)NC(=O)[C@H]4N[C@@H]5CC[C@H]4C5)cc3c2)cc1F (stereo partly drawn) [Example 7]	7.41
CN1C(=O)Cc2ccc(-c3cnc(CC(C#N)NC(=O)[C@H]4N[C@@H]5CC[C@H]4C5)s3)cc21 (stereo partly drawn) [Example 12]	7.83
N#CC(Cc1cc2cc(-c3ccccc3)ccc2o1)NC(=O)[C@H]1N[C@@H]2CC[C@H]1C2 (stereo partly drawn) [Example 9]	7.21
